Data on 93 compounds can be found in PubChem BioAssay AID624491 (Broad Institute, 2012).

This assay concerns D54 ERlucT glycosylation luciferase reporter, luminescence, 24 h. As to the kind of experiment: N-linked glycosylation inhibitors, luciferase reporter, dose response, D54 ERlucT cells, luminescence, cherry-picks (AID 624491;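 also: signal gain reflects blocked N-linked glycosylation of a luciferase reporter; actives raise luciferase signal so AC26 marks activators of the reporter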). (In general: A reporter such as luciferase makes a cellular process visible.)

For `CCNC(=O)c1cc2c(=O)n3cccc(C)c3nc2n(CCc2ccccc2)c1=N`, the AC26 was 1520 nM.
As for `C=CCNc1nc(Nc2ccc(OC)c(OC)c2)c2sc(-c3ccccc3)cc2n1`, the AC26 is 513 nM.
Under `O=C(Nc1ccccc1)N(CCN1CCOCC1)Cc1ccccc1F` stands 1360 nM; under `COc1cccc(-c2cnc3c(NC=O)cc(-c4cc(C)c(O)c(C)c4)cn23)c1`, 2140 nM; under `Cc1ccc(C(=O)NC(=C(Cl)Cl)S(=O)(=O)c2ccc(C)cc2)cc1`, 2550 nM.
For `CC(/C=N/NC(=O)c1cc(-c2ccc(C)s2)[nH]n1)=C\c1ccccc1` the value was 650 nM; for `Cc1nnc(NC(=O)CSc2nc(C(C)C)nc3ccccc23)s1`, 971 nM.
For the compound `COc1ccc(OC)c(S(=O)(=O)Nc2ccc3c(c2)n(C)c(=O)n3C)c1`, the AC26 is 3320 nM.
Under `COc1cccc(C(NC(C)=O)c2nc(-c3ccccc3OC)cs2)c1` (stereo not drawn) stands 452 nM; under `Cc1ccc(S(=O)(=O)[N-]c2nc3ccccc3nc2-n2cc[n+](Cc3ccccc3)c2)cc1`, 118 nM; under `COC(=O)c1c(C)[nH]c(C(=O)/C=C/c2cccc(Cl)c2)c1C`, 2410 nM.
Under `C=CCN1c2ccccc2[C@]23C[C@@H](C(=O)OC)N(C(=O)c4ccc(Br)cc4)C2=NC(C(=O)OC)=C(C(=O)OC)[C@H]13` stands 6060 nM; under `Cc1cc(C(=O)N/N=C/c2c3ccccc3cc3ccccc23)n[nH]1`, 6680 nM; under `COc1ccc2c(c1)C(=O)N1[C@H]3c4cc(OC)ccc4OC[C@@H]3[C@H](c3ccccc3)[C@]1(C)C(=O)N2`, 197 nM.
Under `COc1ccc(Nc2nc(N3CCCC3)nc3ccccc23)c(OC)c1` stands 1950 nM.
As to `COc1cc2c(cc1OC)C(c1ccccc1)N(C(=O)c1ccco1)CC2` (stereo not drawn), the AC26 was 315 nM.
For `COc1cc(C2CC(=O)Nc3cc(C)c(C)cc32)cc(OC)c1OC` (stereo not drawn) the value was 8880 nM; for `CCCCCCC(=O)N(O)C1CC(=O)N(c2ccc(F)cc2)C1=O` (stereo not drawn), 1290 nM; for `Oc1ccc(-c2csc(-c3c[nH]c4ccccc34)n2)c(O)c1`, 3410 nM.
Under `O=C(N/N=C\C=C\c1ccc([N+](=O)[O-])o1)c1cccs1` stands 7850 nM; under `O=C1CCCN1CCCNc1nc(NCc2ccccc2)nc2ccsc12`, 4240 nM.
Under `O=c1cc(N/N=C/c2ccccc2)[nH]c(=O)[nH]1` stands 14400 nM; under `Cn1cccc1/C=C1\C(=O)NC(=O)N(Cc2ccccc2Cl)C1=O`, 2490 nM.
As for `COc1ccc(-c2oc3cc(O)c(OC)c(O)c3c(=O)c2OC)cc1O`, the AC26 was 246 nM.
For `Cc1nc2ccccc2c2oc(C(=O)NCCCN3CC(C)CC(C)C3)cc12` (stereo not drawn) the value was 5380 nM; for `Cc1nn(-c2ccccc2)c(Cl)c1/C=C/C(=O)c1ccc(O)cc1`, 5020 nM.
For `COc1cccc(NC(=O)CCCOc2cc(=O)n(C)c3ccccc23)c1`, the AC26 was 4130 nM.
As for `Cc1ccc(-c2nc(NCCN(C)C)c3ccccc3n2)cc1`, the AC26 is 4940 nM.
Under `C[C@@]12C(=O)Nc3cc(F)c(F)cc3C(=O)N1[C@H]1c3cc(Cl)ccc3OC[C@@H]1[C@@H]2c1ccccc1` stands 789 nM; under `O=c1c2c3c(sc2ncn1/N=C/c1ccc([N+](=O)[O-])o1)CCCC3`, 447 nM.
Under `COc1ccccc1-n1cnc2cc(NCc3ccco3)ccc21` stands 1510 nM; under `Nc1ccc(-c2cc(NC=O)c3ncc(-c4cccc(C(F)(F)F)c4)n3c2)cn1`, 3430 nM; under `COc1ccc(OC)c(N(CC(=O)Nc2cccc3ccccc23)S(C)(=O)=O)c1`, 3100 nM.
With `COC(=O)c1ccccc1NC(=O)Cn1c(-c2nonc2N)nc2ccccc21`, the AC26 was 120 nM.
For `COc1ccc(CCCNC(=O)C2Cc3c(-c4cccc(C(C)=O)c4)ccnc3O2)cc1` (stereo not drawn) the value was 12600 nM.
For the compound `Cc1ccc(S(=O)(=O)c2cc3c(=O)n4ccccc4nc3n(CCc3ccccc3)c2=N)cc1`, the AC26 was 84.5 nM.
Consider `Cc1ccc2nc(SCc3nnc(-c4ccccc4[N+](=O)[O-])o3)c(C#N)cc2c1`, for which the AC26 was 5790 nM.
As to `COc1ccc(CCn2c(=N)c(C(=O)NCCN3CCOCC3)cc3c(=O)n4cccc(C)c4nc32)cc1OC`, the AC26 was 739 nM.
In the case of `O=C(c1[nH]c(C(F)(F)F)nc1-c1ccccc1)N1CCN(c2ccccc2)CC1`, the AC26 is 395 nM.
Under `CCN(CC)CCn1c2ccccc2c2cnc(N)c(C#N)c21` stands 750 nM.
For `CCOC(=O)C1=C(Cc2ccc(F)cc2)C(=O)c2ccccc2C1=O` the value was 6390 nM; for `O=[N+]([O-])c1ccc(Sc2cc[n+]([O-])c3ccccc23)c([N+](=O)[O-])c1`, 5960 nM; for `COc1ccccc1/C=N/NC(=O)c1cc2c(OC)c(OC)ccc2[nH]1`, 495 nM.
For `O=c1[nH]c(=O)n([C@H]2C[C@H](O)[C@@H](CO)O2)cc1I` the value was 5190 nM.
`Cc1ccc2cc(CN(CCCN(C)C)C(=O)NCc3ccccc3)c(=O)[nH]c2c1C`: the AC26 is 69.1 nM.
For `COc1ccc(S(=O)(=O)Nc2c(C(=O)O)[nH]c3ccc(OC)cc23)c(OC)c1`, the AC26 is 5750 nM.
`COc1cc(C(=O)OCCCN2CCCN(CCCOC(=O)c3cc(OC)c(OC)c(OC)c3)CC2)cc(OC)c1OC`: the AC26 was 1550 nM.
Under `CCCCCCCCCCCCCCCCCCNc1ccn(C2OC(COP(=O)(O)OCC3OC(n4cc(F)c(=O)[nH]c4=O)CC3O)C(O)C2O)c(=O)n1` (stereo not drawn) stands 3970 nM; under `Cc1ccc(CC(=O)NCc2ccc(F)cc2)cc1`, 824 nM.
Under `NNC(=O)c1nc(-c2ccccc2)cc(-c2ccccc2)n1` stands 2320 nM; under `CC(=O)c1cccc(-c2ccnc3c2CC(C(=O)NCc2ccccc2)O3)c1` (stereo not drawn), 657 nM; under `CCn1c2ccccc2c2cc(/C=N/NC(=O)c3ccc(O)cc3)ccc21`, 2160 nM.
Under `COc1cc(/C=C/C(=O)/C=C(O)/C=C/c2ccc(O)c(OC)c2)ccc1O` stands 2090 nM.
For the compound `Cn1cnc([N+](=O)[O-])c1S(=O)(=O)c1cccc(Cl)c1`, the AC26 is 1200 nM.
On to `O=C(c1ccc(Cl)c(S(=O)(=O)N2CCCCC2)c1)N1CCN(Cc2ccccc2)CC1`, for which the AC26 is 4150 nM.
On to `COc1cc(-c2cnc3c(NC(C)=O)cc(-c4ccccc4CN(C)C)cn23)cc(OC)c1OC`, for which the AC26 is 2650 nM.
`Cc1ccc2nc(-c3ccccc3)cc(C(=O)N3CC(C)OC(C)C3)c2c1` (stereo not drawn): the AC26 is 2450 nM.
For `O=C(NCc1ccco1)C1CC(c2ccc(C(F)(F)F)cc2)=NO1` (stereo not drawn) the value was 9730 nM.
On to `CC(CC(=O)Nc1ccc2c(c1)c(=O)n(C)n2-c1cccs1)c1ccccc1` (stereo not drawn), for which the AC26 is 6270 nM.
Under `NNC(=O)c1oc2nc(-c3ccco3)cc(-c3ccco3)c2c1N` stands 4260 nM.
For `O=C(COc1ccc(C(=O)c2ccccc2)cc1)NCc1ccc(F)cc1` the value was 1870 nM; for `COc1ccc(C(=O)NC(=C(Cl)Cl)S(=O)(=O)c2ccc(C)cc2)cc1`, 10200 nM; for `CCc1cc2c(=O)n(Cc3ccco3)c(SCc3c(C)noc3C)nc2s1`, 249 nM.
Under `Cc1cc(C)nc(/N=C(\N)Nc2ccc(CC(=O)OC(C)C)cc2)n1` stands 5890 nM.
As for `COc1cc(NC(=O)c2cc(-c3ccccc3)nc3c2cnn3C(C)C)cc(OC)c1OC`, the AC26 is 1150 nM.
For `COc1ccc(C(=O)N2CCN(S(=O)(=O)c3ccc(C)cc3C)CC2)cc1S(=O)(=O)N1CCOCC1` the value was 5770 nM; for `CC(=O)Nc1sc(C)c(C)c1C(=O)OCC(=O)Nc1ccccc1`, 4780 nM; for `Cc1cc(C)c2sc(NC(=O)c3ccc([N+](=O)[O-])o3)nc2c1`, 6640 nM.
In the case of `Cc1nnc2c(NCCC(C)C)nc3ccccc3n12`, the AC26 was 6080 nM.
For `Cc1ccc(Oc2ccc(S(=O)(=O)N3CCOCC3)cc2C(N)=O)c(-n2nc3ccccc3n2)c1` the value was 2770 nM; for `c1ccc(-c2cc(NCCN3CCCCC3)c3ccccc3n2)cc1`, 2910 nM.
Under `COc1cc2cnc(-c3ccccc3)cc2cc1OC` stands 2360 nM.
In the case of `O=c1cc(-c2ccccc2)nc2cc(-c3ccc(F)cc3)[nH]n12`, the AC26 is 4270 nM.
With `Cc1cnc(C(=O)Nc2ccc(OC(F)(F)F)cc2)cn1`, the AC26 is 9150 nM.
On to `COc1ccc(C(=O)/C=C/c2ccc(OC)c(O)c2)c(F)c1`, for which the AC26 is 4860 nM.
Under `COc1ccc(-n2c(=S)[nH]c3cc(C(=O)Nc4ccc(C)c(F)c4)ccc3c2=O)c(OC)c1` stands 9690 nM.
For `Cc1ccc(C(=O)N/C(=C/c2ccco2)C(=O)NCCc2c[nH]c3ccccc23)cc1` the value was 2670 nM.
In the case of `CCN1Cc2c(/C=C/c3ccccc3)nc3ccc(OC)cc3c2N(c2cccc(Cl)c2)C1`, the AC26 is 14300 nM.
For `CCN(CC)S(=O)(=O)c1ccc(N2CCOCC2)c(NC(=O)c2[nH]c(C)c(C(C)=O)c2C)c1` the value was 1860 nM; for `Cn1c(SCC(=O)Nc2cccc(F)c2)nc2c([nH]c3ccccc32)c1=O`, 5420 nM; for `CCN(CC)CCNc1cccc2sc3ccccc3c(=O)c12`, 4840 nM.
For the compound `COc1ccc2c(c1)[C@H]1[C@H](CO2)[C@H](c2ccccc2)[C@]2(C)C(=O)Nc3cc(F)ccc3C(=O)N12`, the AC26 is 19 nM.
For `Clc1cccc(Cl)c1Cn1cnc2c(NCc3ccco3)ncnc21`, the AC26 is 17300 nM.
As for `COc1cccc(C2=NOC(C(=O)NCc3ccc(F)cc3)C2)c1` (stereo not drawn), the AC26 was 1160 nM.
Take `Cc1c2cnccc2c(C)c2c1oc1ccccc12`: the AC26 was 2820 nM.
For `COc1ccc(N2CCc3c(C)nc4c(OC)cc(OC)cc4c32)cc1` the value was 3770 nM.
Turning to `O=C(Cn1cnc2c(NCc3ccccc3)ncnc21)NCc1ccccc1`, the AC26 is 1760 nM.
Turning to `CC[C@H](C)[C@H](NC(=O)c1ccc(Cl)cc1)C(=O)OCC(=O)c1ccc2c(c1)NC(=O)CO2`, the AC26 was 6470 nM.
For `O=C(N/N=C/c1ccc(Cl)cc1)c1sccc1OCc1ccc(F)cc1` the value was 83.6 nM; for `CC(Nc1nc(-c2ccccc2)nc2ccccc12)c1ccccc1` (stereo not drawn), 80.3 nM.
For `CC(C)(C)OC(=O)[C@H](Cc1ccccc1)NC(=O)c1nc[nH]c1C(=O)N1CCc2ccccc2C1` the value was 3820 nM; for `Cc1ccc2oc(C(=O)NCc3ncc(C)[nH]3)c(C)c2c1`, 6750 nM.
As to `CCOC(=O)c1c(C)nc2c(c1-c1cc(OC)c(OC)c(OC)c1)C(=O)c1ccccc1-2`, the AC26 was 1560 nM.
